Measurements as given in patent US20250059182A1, “SOS1 INHIBITORS” (Mirati Therapeutics, Inc., priority 2021, published 2025).

Experiments:
[1] = molecular target: T1, recombinant human SOS1 polypeptide (amino acids 560-1049) (Homo sapiens, UniProt Q07889); assay: HTRF displacement assay: inhibition of labeled tracer binding to SOS1; conditions: Table A, Morrison equation for competitive binding
T1 construct: corresponding to amino acids 560-1049, expressed in E. Coli; made in house; host or cells: E. coli
T1 sequence (Q07889 560-1049): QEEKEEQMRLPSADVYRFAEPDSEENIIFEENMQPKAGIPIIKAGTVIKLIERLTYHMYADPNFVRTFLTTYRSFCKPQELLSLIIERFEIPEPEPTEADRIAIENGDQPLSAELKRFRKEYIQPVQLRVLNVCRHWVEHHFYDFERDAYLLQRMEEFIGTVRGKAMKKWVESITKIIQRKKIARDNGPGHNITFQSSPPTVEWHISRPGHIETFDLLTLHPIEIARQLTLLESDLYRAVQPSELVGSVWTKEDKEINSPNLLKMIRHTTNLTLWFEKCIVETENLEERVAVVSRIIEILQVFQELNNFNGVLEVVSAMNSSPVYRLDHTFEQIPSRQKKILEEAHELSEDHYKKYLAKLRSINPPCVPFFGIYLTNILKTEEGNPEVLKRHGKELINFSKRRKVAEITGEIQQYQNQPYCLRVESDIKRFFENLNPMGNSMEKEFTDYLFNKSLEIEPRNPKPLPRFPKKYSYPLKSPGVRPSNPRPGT

pERK in MKN1 cells = assay: pERK inhibition, In-Cell Western (LI-COR Odyssey), MKN1 cells; format: cell-based; conditions: Homo sapiens, MKN-1, Table B; MKN1 or H358 cells (table does not say which); 0.5-1 hour incubation; read-out: IC50 (nM), pERK inhibition
Method in brief: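 IC50 was fitted from % pERK inhibition, calculated as the GAPDH-normalised pERK signal of each well divided by the vehicle mean. Signal was imaged at 700 and 800 nm after fixation, methanol permeabilisation and dual antibody staining. Before fixation, MKN1 cells had received compound for about 0.5–1 h at 37 °C, top concentration 10 µM, nine 3-fold dilutions.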

| SMILES | Ki [1] [nM] | IC50 (pERK in MKN1 cells) [nM] |
| --- | --- | --- |
| CCN1CC[C@@H](N(C)c2cc3c(N[C@H](C)c4cccc(C#N)c4C)nnc(C)c3cn2)C1 [Example 1-88, 3-((R)-1-((7-(((R)-1-ethylpyrrolidin-3-yl)(methyl)amino)-4-methylpyrido[3,4-d]pyridazin-1-yl)amino)ethyl)-2-methylbenzonitrile] | 1.37 | 35.5 |
| CCN1CC[C@H](N(C)c2cc3c(N[C@H](C)c4cccc(C#N)c4C)nnc(C)c3cn2)C1 [Example 1-89, 3-((R)-1-((7-(((S)-1-ethylpyrrolidin-3-yl)(methyl)amino)-4-methylpyrido[3,4-d]pyridazin-1-yl)amino)ethyl)-2-methylbenzonitrile] | 1.71 | 32.6 |
| Cc1nnc(N[C@H](C)c2cccc(C(F)(F)F)c2F)c2cc(N(C)[C@@H]3CCCN(C)C3)ncc12 [Example 1-90, N^1-((R)-1-(2-fluoro-3-(trifluoromethyl)phenyl)ethyl)-N^7,4-dimethyl-N^7-((R)-1-methylpiperidin-3-yl)pyrido[3,4-d]pyridazine-1,7-diamine] | 0.453 | 102 |
| COCCN(C)c1cc2c(N[C@H](C)c3cccc(C#N)c3C)nnc(C)c2cn1 [Example 1-91, (R)-3-(1-((7-((2-methoxyethyl)(methyl)amino)-4-methylpyrido[3,4-d]pyridazin-1-yl)amino)ethyl)-2-methylbenzonitrile] | 6.07 | 225 |
| Cc1nnc(N[C@H](C)c2cc(N)cc(C(F)(F)F)c2F)c2cc(N3CC(C)(O)C3)ncc12 [Example 1-93, (R)-1-(1-((1-(5-amino-2-fluoro-3-(trifluoromethyl)phenyl)ethyl)amino)-4-methylpyrido[3,4-d]pyridazin-7-yl)-3-methylazetidin-3-ol] | 0.361 | 50.5 |
| Cc1nnc(N[C@H](C)c2cc(N)cc(C(F)(F)F)c2F)c2cc(N3CC4CC(C3)O4)ncc12 [Example 1-94, N-((R)-1-(5-amino-2-fluoro-3-(trifluoromethyl)phenyl)ethyl)-7-(6-oxa-3-azabicyclo[3.1.1]heptan-3-yl)-4-methylpyrido[3,4-d]pyridazin-1-amine] | 0.264 | 15.4 |
| Cc1nnc(N[C@H](C)c2cc(N)cc(C(F)(F)F)c2F)c2cc(N3CC4CC(C3)O4)ccc12 [Example 1-95, N-((R)-1-(5-amino-2-fluoro-3-(trifluoromethyl)phenyl)ethyl)-7-(6-oxa-3-azabicyclo[3.1.1]heptan-3-yl)-4-methylphthalazin-1-amine] | 0.31 | 19.8 |
| Cc1nnc(N[C@H](C)c2ccc(C#N)cc2F)c2cc(N3C[C@H]4C[C@@H]3CO4)ncc12 [Example 1-96, 4-((R)-1-((7-((1R,4R)-2-oxa-5-azabicyclo[2.2.1]heptan-5-yl)-4-methylpyrido[3,4-d]pyridazin-1-yl)amino)ethyl)-3-fluorobenzonitrile] | 19.1 | 255 |
| Cc1nnc(N[C@H](C)c2ccc(C#N)cc2F)c2cc(N3CCN4CCOC[C@@H]4C3)ncc12 [Example 1-97, 3-fluoro-4-((R)-1-((7-((S)-hexahydropyrazino[2,1-c][1,4]oxazin-8(1H)-yl)-4-methylpyrido[3,4-d]pyridazin-1-yl)amino)ethyl)benzonitrile] | 17.7 | 358 |
| Cc1nnc(N[C@H](C)c2cccc3c2OCC3(F)F)c2cc(N3CC4(CN(C)C4)C3)ncc12 [Example 1-99, (R)-N-(1-(3,3-difluoro-2,3-dihydrobenzofuran-7-yl)ethyl)-4-methyl-7-(6-methyl-2,6-diazaspiro[3.3]heptan-2-yl)pyrido[3,4-d]pyridazin-1-amine] | 0.357 | 19.1 |
| Cc1nnc(N[C@H](C)c2cccc3c2OCC3(F)F)c2cc(N3CCN(C)CC3)ncc12 [Example 1-100, (R)-N-(1-(3,3-difluoro-2,3-dihydrobenzofuran-7-yl)ethyl)-4-methyl-7-(4-methylpiperazin-1-yl)pyrido[3,4-d]pyridazin-1-amine] | 0.423 | 25.1 |
